Results as given in ChEMBL document CHEMBL1159178, “The use of a proline ring as a conformational restraint in CCK-B receptor dipeptoids” (Bioorg Med Chem Lett, 1992).
pIC50: −log10 of the molar value.

Assays:
[1] = target: T1, Cholecystokinin receptor type A (Rattus norvegicus, UniProt P30551); test: Evaluated for in vitro binding affinity to cholecystokinin-A (CCK-A) receptor in homogenized rat pancreas using [125I]bolton hunter CCK-26-33 as radioligand; 770-2020
T1 sequence (P30551 whole entry): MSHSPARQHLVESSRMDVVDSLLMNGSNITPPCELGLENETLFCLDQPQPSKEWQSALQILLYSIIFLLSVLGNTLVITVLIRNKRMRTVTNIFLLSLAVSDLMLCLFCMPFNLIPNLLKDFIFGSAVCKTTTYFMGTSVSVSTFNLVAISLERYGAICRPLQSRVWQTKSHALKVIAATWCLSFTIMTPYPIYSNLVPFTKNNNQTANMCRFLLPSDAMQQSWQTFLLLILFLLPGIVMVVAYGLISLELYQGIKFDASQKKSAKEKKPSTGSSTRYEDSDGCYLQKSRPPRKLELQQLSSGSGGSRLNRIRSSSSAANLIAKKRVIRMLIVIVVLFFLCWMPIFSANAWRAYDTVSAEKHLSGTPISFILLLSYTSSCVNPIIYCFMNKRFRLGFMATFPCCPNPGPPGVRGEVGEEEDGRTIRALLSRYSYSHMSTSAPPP

[2] = target: T2, Gastrin/cholecystokinin type B receptor (Mus musculus, UniProt P56481); test: Evaluated for in vitro binding affinity towards cholecystokinin-B (CCK-B) receptor in mouse cerebral cortex using [125I]bolton hunter CCK-26-33 as radioligand; 365-1590; format: tissue-based
T2 sequence (P56481 whole entry): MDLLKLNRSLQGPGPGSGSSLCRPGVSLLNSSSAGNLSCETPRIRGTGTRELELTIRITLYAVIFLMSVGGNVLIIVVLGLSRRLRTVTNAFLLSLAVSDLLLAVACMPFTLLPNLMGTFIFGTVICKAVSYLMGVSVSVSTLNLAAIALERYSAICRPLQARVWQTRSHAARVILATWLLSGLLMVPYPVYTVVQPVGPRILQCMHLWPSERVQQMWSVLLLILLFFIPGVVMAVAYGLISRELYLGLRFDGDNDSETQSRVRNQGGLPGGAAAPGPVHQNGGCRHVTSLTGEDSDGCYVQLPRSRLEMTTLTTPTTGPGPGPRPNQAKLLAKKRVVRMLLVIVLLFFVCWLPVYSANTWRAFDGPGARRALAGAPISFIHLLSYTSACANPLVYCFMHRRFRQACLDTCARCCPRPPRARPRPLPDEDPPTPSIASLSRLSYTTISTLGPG

[3] = target: T1, Cholecystokinin receptor type A; test: Evaluated for in vitro binding affinity to cholecystokinin-A (CCK-A) receptor in homogenized rat pancreas using [125I]bolton hunter CCK-26-33 as radioligand; 690-850
[4] = target: T2, Gastrin/cholecystokinin type B receptor; test: Evaluated for in vitro binding affinity towards cholecystokinin-B (CCK-B) receptor in mouse cerebral cortex using [125I]bolton hunter CCK-26-33 as radioligand; 4.2-8.9; format: tissue-based
[5] = target: T1, Cholecystokinin receptor type A; test: Evaluated for in vitro binding affinity to cholecystokinin-A (CCK-A) receptor in homogenized rat pancreas using [125I]bolton hunter CCK-26-33 as radioligand; 743-1710
[6] = target: T2, Gastrin/cholecystokinin type B receptor; test: Evaluated for in vitro binding affinity towards cholecystokinin-B (CCK-B) receptor in mouse cerebral cortex using [125I]bolton hunter CCK-26-33 as radioligand; 1790-2700; format: tissue-based

CC(Cc1c[nH]c2ccccc12)(NC(=O)OC1C2CC3CC(C2)CC1C3)C(=O)NC(CO)Cc1ccccc1 (stereo unspecified)
pIC50 [1]: 5.97
pIC50 [2]: 6.07

O=C(NC(Cc1c[nH]c2ccccc12)C(=O)NC(CO)Cc1ccccc1)OC1C2CC3CC(C2)CC1C3 (stereo unspecified)
pIC50 [3]: 6.11
pIC50 [4]: 8.20

O=C(OC1C2CC3CC(C2)CC1C3)N1CCCC1(Cc1c[nH]c2ccccc12)C(=O)NC(CO)Cc1ccccc1 (stereo unspecified)
pIC50 [5]: 5.98
pIC50 [6]: 5.68
